From PMC5218480 (PLoS ONE, 2017)

Test system: MV-4-11 cells
Assay: Gene expression microarray analysis (Affymetrix PrimeView) and GSEA
Assay type: cell-based, human
Set-up: RFU PODN (11730768_x_at) / Fold change /veh PODN (11730768_x_at) / RFU LINC00158 (11744669_a_at) / Fold change /veh LINC00158 (11744669_a_at) / RFU DUSP10 (11751237_a_at) / Fold change /veh DUSP10 (11751237_a_at) / RFU ID3 (11757404_x_at) / Fold change /veh ID3 (11757404_x_at) / RFU PLEKHG5 (11737974_s_at) / Fold change /veh PLEKHG5 (11737974_s_at) / RFU LRRC4B (11730491_at) / Fold change /veh LRRC4B (11730491_at) / RFU GIMAP4 (11747438_a_at) / Fold change /veh GIMAP4 (11747438_a_at) / RFU KRT8 (11758183_x_at) / Fold change /veh KRT8 (11758183_x_at) / RFU CNN1 (11734310_a_at) / Fold change /veh CNN1 (11734310_a_at) / RFU VPS37D (11726825_at) / Fold change /veh VPS37D (11726825_at) / RFU C10orf10 (11716522_x_at) / Fold change /veh C10orf10 (11716522_x_at) / RFU KIR2DL2 /// KIR2DL4 /// KIR2DL5A /// KIR2DL5B /// KIR2DS1 /// KIR2DS2 /// KIR2DS3 /// KIR2DS4 /// KIR3DL3 /// KIR3DL3 /// KIR3DS1 (11738374_at) / Fold change /veh KIR2DL2 /// KIR2DL4 /// KIR2DL5A /// KIR2DL5B /// KIR2DS1 /// KIR2DS2 /// KIR2DS3 /// KIR2DS4 /// KIR3DL3 /// KIR3DL3 /// KIR3DS1 (11738374_at) / RFU C1QL1 (11718748_at) / Fold change /veh C1QL1 (11718748_at) / RFU TMPRSS4 (11747572_a_at) / Fold change /veh TMPRSS4 (11747572_a_at) / RFU HAMP (11756126_x_at) / Fold change /veh HAMP (11756126_x_at) / RFU RNFT2 (11725882_a_at) / Fold change /veh RNFT2 (11725882_a_at) / RFU NR4A2 (11747474_a_at) / Fold change /veh NR4A2 (11747474_a_at) / RFU ABCC12 (11746883_a_at) / Fold change /veh ABCC12 (11746883_a_at) / RFU TMEM136 (11760407_x_at) / Fold change /veh TMEM136 (11760407_x_at) / RFU CLDN22 /// WWC2 (11732394_at) / Fold change /veh CLDN22 /// WWC2 (11732394_at) / RFU HLA-DPB1 (11760878_x_at) / Fold change /veh HLA-DPB1 (11760878_x_at) / RFU SPINT1 (11716480_a_at) / Fold change /veh SPINT1 (11716480_a_at) / RFU GAP43 (11754022_s_at) / Fold change /veh GAP43 (11754022_s_at) / RFU A4GNT (11735810_at) / Fold change /veh A4GNT (11735810_at) / RFU PRB3 (11715151_x_at) / Fold change /veh PRB3 (11715151_x_at) / RFU TUBB4B (11761932_at) / Fold change /veh TUBB4B (11761932_at) / RFU CAPN14 (11732068_a_at) / Fold change /veh CAPN14 (11732068_a_at) / RFU TMCC2 (11721928_a_at) / Fold change /veh TMCC2 (11721928_a_at) / RFU IRGQ (11745062_a_at) / Fold change /veh IRGQ (11745062_a_at) / RFU FAM174B (11720279_a_at) / Fold change /veh FAM174B (11720279_a_at) / RFU TMPRSS4 (11748680_a_at) / Fold change /veh TMPRSS4 (11748680_a_at) / RFU FAM212B (11763350_a_at) / Fold change /veh FAM212B (11763350_a_at) / RFU PLEKHG5 (11743358_a_at) / Fold change /veh PLEKHG5 (11743358_a_at) / RFU ZSCAN30 (11745921_a_at) / Fold change /veh ZSCAN30 (11745921_a_at) / RFU CMKLR1 (11741424_a_at) / Fold change /veh CMKLR1 (11741424_a_at) / RFU LOC101060620 /// MAPK8IP1 (11723275_at) / Fold change /veh LOC101060620 /// MAPK8IP1 (11723275_at) / RFU SPTSSB (11747773_x_at) / Fold change /veh SPTSSB (11747773_x_at) / RFU PRSS12 (11739890_at) / Fold change /veh PRSS12 (11739890_at) / RFU BIN1 (11741810_x_at) / Fold change /veh BIN1 (11741810_x_at) / RFU WNT11 (11732464_a_at) / Fold change /veh WNT11 (11732464_a_at) / RFU C10orf10 (11716521_a_at) / Fold change /veh C10orf10 (11716521_a_at) / RFU C5orf56 (11738089_at) / Fold change /veh C5orf56 (11738089_at) / RFU CYB561 (11721691_x_at) / Fold change /veh CYB561 (11721691_x_at) / RFU ANKRD19P (11752326_a_at) / Fold change /veh ANKRD19P (11752326_a_at) / RFU OR2T12 /// OR2T33 /// OR2T8 (11738714_s_at) / Fold change /veh OR2T12 /// OR2T33 /// OR2T8 (11738714_s_at) / RFU VCAN (11748164_a_at) / Fold change /veh VCAN (11748164_a_at) / RFU JSRP1 (11732532_at) / Fold change /veh JSRP1 (11732532_at) / RFU KRTAP10-11 (11738290_x_at) / Fold change /veh KRTAP10-11 (11738290_x_at) / RFU MYO3A (11730013_a_at) / Fold change /veh MYO3A (11730013_a_at) / RFU EBF3 (11725865_a_at) / Fold change /veh EBF3 (11725865_a_at) / RFU CAMK2N1 (11719241_x_at) / Fold change /veh CAMK2N1 (11719241_x_at) / RFU C5orf56 (11738088_a_at) / Fold change /veh C5orf56 (11738088_a_at) / RFU OLFML3 (11715873_a_at) / Fold change /veh OLFML3 (11715873_a_at) / RFU LOC100653217 /// NTM (11731650_a_at) / Fold change /veh LOC100653217 /// NTM (11731650_a_at) / RFU MAPK11 (11762145_a_at) / Fold change /veh MAPK11 (11762145_a_at) / RFU FIZ1 (11724087_x_at) / Fold change /veh FIZ1 (11724087_x_at) / RFU OASL (11726364_x_at) / Fold change /veh OASL (11726364_x_at) / RFU SOX15 (11748057_x_at) / Fold change /veh SOX15 (11748057_x_at) / RFU CD79A (11719716_a_at) / Fold change /veh CD79A (11719716_a_at) / RFU HIST1H1D (11736915_at) / Fold change /veh HIST1H1D (11736915_at) / RFU CASKIN2 (11723855_a_at) / Fold change /veh CASKIN2 (11723855_a_at) / RFU LOC730098 (11760151_x_at) / Fold change /veh LOC730098 (11760151_x_at) / RFU OR4N2 (11742367_at) / Fold change /veh OR4N2 (11742367_at) / RFU PRRT2 (11749266_a_at) / Fold change /veh PRRT2 (11749266_a_at) / RFU SNX32 (11753110_a_at) / Fold change /veh SNX32 (11753110_a_at) / RFU CDHR5 (11726645_a_at) / Fold change /veh CDHR5 (11726645_a_at) / RFU RCAN1 (11760418_a_at) / Fold change /veh RCAN1 (11760418_a_at) / RFU FAM167A (11723789_a_at) / Fold change /veh FAM167A (11723789_a_at) / RFU FAM26E (11764081_at) / Fold change /veh FAM26E (11764081_at) / RFU ISYNA1 (11749810_s_at) / Fold change /veh ISYNA1 (11749810_s_at) / RFU ACY1 (11761880_at) / Fold change /veh ACY1 (11761880_at) / RFU 11764098_at / Fold change /veh 11764098_at / RFU SAMD14 (11745864_x_at) / Fold change /veh SAMD14 (11745864_x_at) / RFU NPB (11741838_a_at) / Fold change /veh NPB (11741838_a_at) / RFU TMPRSS6 (11731388_a_at) / Fold change /veh TMPRSS6 (11731388_a_at) / RFU KRTAP10-2 (11738614_at) / Fold change /veh KRTAP10-2 (11738614_at) / RFU ARHGAP8 /// PRR5-ARHGAP8 (11727945_x_at) / Fold change /veh ARHGAP8 /// PRR5-ARHGAP8 (11727945_x_at) / RFU KRTAP5-7 /// NADSYN1 (11734609_at) / Fold change /veh KRTAP5-7 /// NADSYN1 (11734609_at) / RFU RASL12 (11751679_a_at) / Fold change /veh RASL12 (11751679_a_at) / RFU CDKN2B (11736163_a_at) / Fold change /veh CDKN2B (11736163_a_at) / RFU PRF1 (11729649_at) / Fold change /veh PRF1 (11729649_at) / RFU, ZNF638 /// ZNF638-IT1 / Fold change vs veh, ZNF638 /// ZNF638-IT1 / RFU, PANK3 / Fold change vs veh, PANK3 / RFU, SH3YL1 / Fold change vs veh, SH3YL1 / RFU, ZEB2 / Fold change vs veh, ZEB2 / RFU, NRIP1 / Fold change vs veh, NRIP1 / RFU, PTTG1IP / Fold change vs veh, PTTG1IP / RFU, CAPN2 / Fold change vs veh, CAPN2 / RFU, MED14 / Fold change vs veh, MED14 / RFU, SNORA58 / Fold change vs veh, SNORA58 / RFU, C1orf63 / Fold change vs veh, C1orf63 / RFU, LRRFIP1 / Fold change vs veh, LRRFIP1 / RFU, NDUFAF7 / Fold change vs veh, NDUFAF7 / RFU, SLC12A2 / Fold change vs veh, SLC12A2 / RFU, IBTK / Fold change vs veh, IBTK / RFU, ESF1 / Fold change vs veh, ESF1 / Fold change vs veh, TMEM50B / RFU, TAOK1 / Fold change vs veh, TAOK1 / RFU, ACBD3 / Fold change vs veh, ACBD3 / RFU, TMA16 / Fold change vs veh, TMA16 / RFU, RWDD3 / Fold change vs veh, RWDD3 / RFU, BCAT1 / Fold change vs veh, BCAT1 / RFU, EDEM3 / Fold change vs veh, EDEM3 / RFU, TMEM33 / Fold change vs veh, TMEM33 / RFU, WDR75 / Fold change vs veh, WDR75 / RFU, AHCTF1 / Fold change vs veh, AHCTF1 / RFU, TFRC / Fold change vs veh, TFRC / RFU, ZDHHC17 / Fold change vs veh, ZDHHC17 / RFU, NOM1 / Fold change vs veh, NOM1 / RFU, ARL8B / Fold change vs veh, ARL8B / RFU, ZBTB11 / Fold change vs veh, ZBTB11 / RFU, TAMM41 / Fold change vs veh, TAMM41 / RFU, KIAA1704 /// LOC100996395 / Fold change vs veh, KIAA1704 /// LOC100996395 / RFU, ING1 / Fold change vs veh, ING1 / RFU, TRMT61B / Fold change vs veh, TRMT61B / RFU, FUBP3 / Fold change vs veh, FUBP3 / RFU, TP53 / Fold change vs veh, TP53 / RFU, TNKS2 / Fold change vs veh, TNKS2 / RFU, ZFP14 / Fold change vs veh, ZFP14 / RFU, ACTR2 / Fold change vs veh, ACTR2 / RFU, PPP3R1 / Fold change vs veh, PPP3R1 / RFU, PIK3R1 / Fold change vs veh, PIK3R1 / RFU, HNRNPA1 / Fold change vs veh, HNRNPA1 / RFU, RNF170 / Fold change vs veh, RNF170 / RFU, ZNF28 / Fold change vs veh, ZNF28 / RFU, RNGTT / Fold change vs veh, RNGTT / RFU, OGT / Fold change vs veh, OGT / RFU, BRD1 / Fold change vs veh, BRD1 / RFU, MARS / Fold change vs veh, MARS / RFU, ZNF655 / Fold change vs veh, ZNF655 / RFU, FAHD1 / Fold change vs veh, FAHD1 / RFU, BDP1 / Fold change vs veh, BDP1 / RFU, LRRCC1 / Fold change vs veh, LRRCC1 / RFU, ARID1A / Fold change vs veh, ARID1A / RFU, ZNF146 / Fold change vs veh, ZNF146 / RFU, ZNF330 / Fold change vs veh, ZNF330 / RFU, GPN3 / Fold change vs veh, GPN3 / RFU, C9orf123 / Fold change vs veh, C9orf123 / RFU, N4BP2L2 / Fold change vs veh, N4BP2L2 / RFU, ARFIP1 / Fold change vs veh, ARFIP1 / RFU, FAM179B / Fold change vs veh, FAM179B / RFU, BCL10 / Fold change vs veh, BCL10 / RFU, UHRF1BP1L / Fold change vs veh, UHRF1BP1L / RFU, BET1 / Fold change vs veh, BET1 / RFU, CNOT2 / Fold change vs veh, CNOT2 / RFU, ZNF268 / Fold change vs veh, ZNF268 / Fold change vs veh, ZNF507 / RFU, DGCR2 / Fold change vs veh, DGCR2 / RFU, WDSUB1 / Fold change vs veh, WDSUB1 / Fold change vs veh, HSP90B1 /// MIR3652 / RFU, ADSS / Fold change vs veh, ADSS / RFU, GK / Fold change vs veh, GK / RFU, ZNF148 / Fold change vs veh, ZNF148 / RFU, TAF9 / Fold change vs veh, TAF9 / RFU, SLC1A5 / Fold change vs veh, SLC1A5 / RFU, SLMO2 / Fold change vs veh, SLMO2 / RFU, ABCC4 / Fold change vs veh, ABCC4 / RFU, LOC101060439 /// RAP1B / Fold change vs veh, LOC101060439 /// RAP1B / RFU, RFX7 / Fold change vs veh, RFX7 / RFU, GTPBP10 / Fold change vs veh, GTPBP10 / RFU, CNEP1R1 / Fold change vs veh, CNEP1R1 / RFU, BIVM-ERCC5 /// ERCC5 / Fold change vs veh, BIVM-ERCC5 /// ERCC5 / RFU, ILF3 / Fold change vs veh, ILF3 / RFU 11762660_at / Fold change /veh 11762660_at / RFU VCAN (11757783_s_at) / Fold change /veh VCAN (11757783_s_at) / RFU DDX43 (11728927_at) / Fold change /veh DDX43 (11728927_at) / RFU KRT8 (11758188_x_at) / Fold change /veh KRT8 (11758188_x_at) / RFU NKD1 (11759106_at) / Fold change /veh NKD1 (11759106_at) / RFU SRD5A1 (11742802_a_at) / Fold change /veh SRD5A1 (11742802_a_at) / RFU TPSAB1 /// TPSB2 (11721975_s_at) / Fold change /veh TPSAB1 /// TPSB2 (11721975_s_at) / RFU GSTM3 (11746129_a_at) / Fold change /veh GSTM3 (11746129_a_at) / RFU IL23R (11737362_x_at) / Fold change /veh IL23R (11737362_x_at) / RFU TMEM51 (11727254_a_at) / Fold change /veh TMEM51 (11727254_a_at) / RFU PIWIL2 (11732686_x_at) / Fold change /veh PIWIL2 (11732686_x_at) / RFU ORM1 (11744905_x_at) / Fold change /veh ORM1 (11744905_x_at) / RFU CCDC152 (11743942_at) / Fold change /veh CCDC152 (11743942_at) / RFU ECM1 (11717891_a_at) / Fold change /veh ECM1 (11717891_a_at) / RFU IL23R (11748794_a_at) / Fold change /veh IL23R (11748794_a_at) / RFU TNFAIP8L3 (11732012_x_at) / Fold change /veh TNFAIP8L3 (11732012_x_at) / RFU MBOAT4 (11741988_at) / Fold change /veh MBOAT4 (11741988_at) / RFU 11764193_at / Fold change /veh 11764193_at / RFU TMEM53 (11763286_at) / Fold change /veh TMEM53 (11763286_at) / RFU MAGEB2 (11727129_at) / Fold change /veh MAGEB2 (11727129_at) / RFU TMEM200A (11744735_a_at) / Fold change /veh TMEM200A (11744735_a_at) / RFU CCDC152 (11751479_a_at) / Fold change /veh CCDC152 (11751479_a_at) / RFU FAM211A (11726209_a_at) / Fold change /veh FAM211A (11726209_a_at) / RFU RGS16 (11746705_a_at) / Fold change /veh RGS16 (11746705_a_at) / RFU VCAN (11755009_s_at) / Fold change /veh VCAN (11755009_s_at) / RFU RHOB (11743442_s_at) / Fold change /veh RHOB (11743442_s_at) / RFU RGS16 (11720943_a_at) / Fold change /veh RGS16 (11720943_a_at) / RFU RGS16 (11720944_at) / Fold change /veh RGS16 (11720944_at) / RFU, VPS4B / Fold change vs veh, VPS4B / RFU, CREB1 / Fold change vs veh, CREB1 / RFU, DNAJC13 / Fold change vs veh, DNAJC13 / RFU, GNAQ / Fold change vs veh, GNAQ / RFU, CDK5R1 / Fold change vs veh, CDK5R1 / RFU, ZRANB3 / Fold change vs veh, ZRANB3 / RFU, CUL4A / Fold change vs veh, CUL4A / RFU, CCNY / Fold change vs veh, CCNY / RFU, UFL1 / Fold change vs veh, UFL1 / RFU, COG3 / Fold change vs veh, COG3 / RFU, DIAPH2 / Fold change vs veh, DIAPH2 / RFU, SKA2 / Fold change vs veh, SKA2 / RFU, AFF3 / Fold change vs veh, AFF3 / RFU, LMF1 / Fold change vs veh, LMF1 / RFU, IPO11 / Fold change vs veh, IPO11 / RFU, DFFB / Fold change vs veh, DFFB / RFU, FOXP1 / Fold change vs veh, FOXP1 / RFU, CARD8 / Fold change vs veh, CARD8 / RFU, STRN3 / Fold change vs veh, STRN3 / RFU, ADK / Fold change vs veh, ADK / RFU, RASSF2 / Fold change vs veh, RASSF2 / RFU, WIPF1 / Fold change vs veh, WIPF1 / RFU, LARP1B / Fold change vs veh, LARP1B / RFU, RASA1 / Fold change vs veh, RASA1 / RFU, RB1 / Fold change vs veh, RB1 / RFU, PPFIA1 / Fold change vs veh, PPFIA1 / RFU, MAT2A / Fold change vs veh, MAT2A / RFU, CCT5 / Fold change vs veh, CCT5 / RFU, WDR92 / Fold change vs veh, WDR92 / RFU, CUX1 / Fold change vs veh, CUX1 / RFU, TTC7A / Fold change vs veh, TTC7A / RFU, TMEM135 / Fold change vs veh, TMEM135 / RFU, DEPTOR / Fold change vs veh, DEPTOR / RFU, CPM / Fold change vs veh, CPM / RFU, DNAJB6 / Fold change vs veh, DNAJB6 / RFU, CACNA2D3 / Fold change vs veh, CACNA2D3 / RFU, DTX4 / Fold change vs veh, DTX4 / RFU, TFCP2 / Fold change vs veh, TFCP2 / RFU, GMCL1 /// GMCL1P1 / Fold change vs veh, GMCL1 /// GMCL1P1 / RFU, AEBP2 / Fold change vs veh, AEBP2 / RFU, SNHG1 /// SNORD22 /// SNORD25 /// SNORD26 /// SNORD27 /// SNORD28 /// SNORD29 /// SNORD31 / Fold change vs veh, SNHG1 /// SNORD22 /// SNORD25 /// SNORD26 /// SNORD27 /// SNORD28 /// SNORD29 /// SNORD31 / Fold change (Aza/veh), C12orf56 (ProbeSet 11735607_a_at) / Fold change (ACY-1035/veh), C12orf56 (ProbeSet 11735607_a_at) / Fold change (Aza/veh), FGFR1OP (ProbeSet 11751329_s_at) / Fold change (ACY-1035/veh), FGFR1OP (ProbeSet 11751329_s_at) / Fold change (Aza/veh), VPS36 (ProbeSet 11739960_a_at) / Fold change (ACY-1035/veh), VPS36 (ProbeSet 11739960_a_at) / RFU SYPL1 (11715823_x_at) / Fold change /veh SYPL1 (11715823_x_at) / RFU IGFBP7 (11715501_s_at) / Fold change /veh IGFBP7 (11715501_s_at) / RFU REEP3 (11722064_at) / Fold change /veh REEP3 (11722064_at) / RFU IGLL1 (11728026_x_at) / Fold change /veh IGLL1 (11728026_x_at): dose or concentration left out as unconfirmed
Settings: ProbeSet 11715478_a_at; LIST B

Compound: Nc1ccc(-c2cccs2)cc1NC(=O)c1ccc2c(c1)cc(C1CC1)n2CCN1CCOCC1 [ACY-1035]
- Fold change vs veh, TFRC: 0.87
